Experiments:
Adenosine receptor A2a = Adenosine receptor A2a (Homo sapiens, UniProt P29274)
Adenosine receptor A3 = target: T1, Adenosine receptor A3 (Homo sapiens, UniProt P0DMS8)
T1 sequence (P0DMS8 whole entry): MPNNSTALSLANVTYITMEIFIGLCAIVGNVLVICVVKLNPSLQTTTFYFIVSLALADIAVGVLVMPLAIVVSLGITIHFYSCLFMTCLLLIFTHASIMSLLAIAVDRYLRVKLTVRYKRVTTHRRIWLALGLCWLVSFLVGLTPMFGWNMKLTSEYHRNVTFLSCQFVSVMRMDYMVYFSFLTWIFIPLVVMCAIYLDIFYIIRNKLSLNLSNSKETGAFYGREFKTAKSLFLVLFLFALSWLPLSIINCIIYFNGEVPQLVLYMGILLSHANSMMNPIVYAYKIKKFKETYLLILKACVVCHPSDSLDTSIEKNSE

[1] = target: T2, Alpha-2A adrenergic receptor (Homo sapiens, UniProt P08913); assay type: functional, cell-based
T2 sequence (P08913 whole entry): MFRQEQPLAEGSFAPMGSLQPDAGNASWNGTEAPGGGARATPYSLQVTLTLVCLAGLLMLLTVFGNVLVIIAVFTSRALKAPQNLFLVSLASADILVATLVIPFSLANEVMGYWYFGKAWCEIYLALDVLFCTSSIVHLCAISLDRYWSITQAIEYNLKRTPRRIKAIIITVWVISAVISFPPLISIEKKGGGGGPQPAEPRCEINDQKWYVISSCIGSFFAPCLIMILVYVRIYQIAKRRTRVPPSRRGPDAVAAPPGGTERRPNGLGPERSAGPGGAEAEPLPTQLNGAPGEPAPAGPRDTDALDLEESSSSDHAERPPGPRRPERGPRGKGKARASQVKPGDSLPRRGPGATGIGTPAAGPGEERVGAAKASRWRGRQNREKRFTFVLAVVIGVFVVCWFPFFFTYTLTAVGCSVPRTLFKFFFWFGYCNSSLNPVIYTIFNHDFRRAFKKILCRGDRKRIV

[2] = target: Beta-1 adrenergic receptor (Homo sapiens, UniProt P08588); assay type: functional
[3] = target: Growth hormone secretagogue receptor type 1 (Homo sapiens, UniProt Q92847)
[4] = target: T3, 5-hydroxytryptamine receptor 1A (Homo sapiens, UniProt P08908); assay type: functional, cell-based
T3 sequence (P08908 whole entry): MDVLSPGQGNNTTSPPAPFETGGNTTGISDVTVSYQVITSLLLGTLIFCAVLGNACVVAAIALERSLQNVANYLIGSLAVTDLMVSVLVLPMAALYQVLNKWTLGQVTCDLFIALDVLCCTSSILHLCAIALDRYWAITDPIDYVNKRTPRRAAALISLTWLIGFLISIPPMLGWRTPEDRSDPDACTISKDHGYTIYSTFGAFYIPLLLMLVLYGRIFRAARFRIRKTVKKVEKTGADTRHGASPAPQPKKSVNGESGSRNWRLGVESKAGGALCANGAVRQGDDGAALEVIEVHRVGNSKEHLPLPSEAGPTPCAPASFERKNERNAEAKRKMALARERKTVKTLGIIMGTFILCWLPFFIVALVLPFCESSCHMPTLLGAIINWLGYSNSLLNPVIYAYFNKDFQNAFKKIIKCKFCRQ

[5] = target: 5-hydroxytryptamine receptor 2B (Homo sapiens, UniProt P41595); assay type: functional, cell-based
[6] = target: T4, 5-hydroxytryptamine receptor 2C (Homo sapiens, UniProt P28335)
T4 sequence (P28335 whole entry): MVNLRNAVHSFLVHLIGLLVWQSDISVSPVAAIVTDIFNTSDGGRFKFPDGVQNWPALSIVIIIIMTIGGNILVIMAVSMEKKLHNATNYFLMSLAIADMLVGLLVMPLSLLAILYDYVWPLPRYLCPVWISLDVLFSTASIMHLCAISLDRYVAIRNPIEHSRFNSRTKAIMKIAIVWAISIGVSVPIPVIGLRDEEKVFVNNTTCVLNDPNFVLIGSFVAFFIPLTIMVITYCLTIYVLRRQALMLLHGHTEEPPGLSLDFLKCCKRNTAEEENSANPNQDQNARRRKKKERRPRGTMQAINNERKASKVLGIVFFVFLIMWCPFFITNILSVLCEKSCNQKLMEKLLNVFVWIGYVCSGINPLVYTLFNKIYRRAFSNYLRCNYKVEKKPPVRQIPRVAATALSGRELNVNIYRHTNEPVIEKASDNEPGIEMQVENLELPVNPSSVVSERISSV

[7] = target: Delta-type opioid receptor (Homo sapiens, UniProt P41143)
[8] = target: 3',5'-cyclic-AMP phosphodiesterase 4D (Homo sapiens, UniProt Q08499); assay type: functional
[9] = target: T5, Equilibrative nucleoside transporter 1 (Homo sapiens, UniProt Q99808)
T5 sequence (Q99808 whole entry): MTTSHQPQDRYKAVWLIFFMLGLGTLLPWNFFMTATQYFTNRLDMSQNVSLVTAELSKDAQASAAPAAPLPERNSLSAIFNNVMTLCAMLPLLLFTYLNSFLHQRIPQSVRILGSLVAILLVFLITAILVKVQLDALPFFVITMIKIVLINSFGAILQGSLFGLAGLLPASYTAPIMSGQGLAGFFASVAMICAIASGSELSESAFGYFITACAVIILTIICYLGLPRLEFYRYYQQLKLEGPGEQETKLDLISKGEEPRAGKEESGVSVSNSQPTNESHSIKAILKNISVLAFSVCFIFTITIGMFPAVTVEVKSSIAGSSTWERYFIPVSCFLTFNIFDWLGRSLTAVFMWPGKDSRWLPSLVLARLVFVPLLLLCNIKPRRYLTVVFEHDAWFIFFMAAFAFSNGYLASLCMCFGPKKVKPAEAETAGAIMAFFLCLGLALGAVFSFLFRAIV
Further: assay procedure not described here.

Chain of Adenosine receptor A2a (P29274 whole entry): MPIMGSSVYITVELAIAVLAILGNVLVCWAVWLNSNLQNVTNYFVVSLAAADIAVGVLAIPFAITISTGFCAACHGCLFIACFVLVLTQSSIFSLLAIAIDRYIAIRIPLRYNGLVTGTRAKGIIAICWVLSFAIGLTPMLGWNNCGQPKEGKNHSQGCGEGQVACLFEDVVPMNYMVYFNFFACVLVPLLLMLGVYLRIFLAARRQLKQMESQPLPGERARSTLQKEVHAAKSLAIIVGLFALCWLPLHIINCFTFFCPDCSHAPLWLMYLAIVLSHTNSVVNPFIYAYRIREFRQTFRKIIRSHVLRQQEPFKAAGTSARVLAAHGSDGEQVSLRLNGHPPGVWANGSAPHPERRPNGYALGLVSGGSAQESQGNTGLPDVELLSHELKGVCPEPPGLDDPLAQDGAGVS
Chain of 5-hydroxytryptamine receptor 2B (P41595 whole entry): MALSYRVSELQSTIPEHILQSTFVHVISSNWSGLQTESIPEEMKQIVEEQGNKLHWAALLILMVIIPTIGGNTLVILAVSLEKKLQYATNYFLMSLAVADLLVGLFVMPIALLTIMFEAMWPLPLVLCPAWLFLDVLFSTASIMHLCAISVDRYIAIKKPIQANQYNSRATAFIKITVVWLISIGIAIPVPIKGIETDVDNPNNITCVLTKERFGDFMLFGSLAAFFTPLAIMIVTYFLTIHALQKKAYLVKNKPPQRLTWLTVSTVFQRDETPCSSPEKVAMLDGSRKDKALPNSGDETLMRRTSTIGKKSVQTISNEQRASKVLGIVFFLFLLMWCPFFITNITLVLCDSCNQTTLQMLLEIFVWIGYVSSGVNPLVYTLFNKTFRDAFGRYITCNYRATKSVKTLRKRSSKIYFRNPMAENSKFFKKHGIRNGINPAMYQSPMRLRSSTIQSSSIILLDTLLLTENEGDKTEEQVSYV
Chain of Growth hormone secretagogue receptor type 1 (Q92847 whole entry): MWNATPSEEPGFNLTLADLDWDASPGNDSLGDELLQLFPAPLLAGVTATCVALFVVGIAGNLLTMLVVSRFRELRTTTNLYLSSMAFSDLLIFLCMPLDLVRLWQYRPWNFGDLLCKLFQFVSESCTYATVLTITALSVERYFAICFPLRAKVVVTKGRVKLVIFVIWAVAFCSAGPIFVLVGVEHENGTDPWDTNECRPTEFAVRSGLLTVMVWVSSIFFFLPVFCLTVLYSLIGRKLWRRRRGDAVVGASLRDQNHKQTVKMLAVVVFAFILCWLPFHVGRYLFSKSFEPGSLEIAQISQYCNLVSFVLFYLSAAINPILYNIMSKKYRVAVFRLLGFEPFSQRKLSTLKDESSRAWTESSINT
Chain of Beta-1 adrenergic receptor (P08588 whole entry): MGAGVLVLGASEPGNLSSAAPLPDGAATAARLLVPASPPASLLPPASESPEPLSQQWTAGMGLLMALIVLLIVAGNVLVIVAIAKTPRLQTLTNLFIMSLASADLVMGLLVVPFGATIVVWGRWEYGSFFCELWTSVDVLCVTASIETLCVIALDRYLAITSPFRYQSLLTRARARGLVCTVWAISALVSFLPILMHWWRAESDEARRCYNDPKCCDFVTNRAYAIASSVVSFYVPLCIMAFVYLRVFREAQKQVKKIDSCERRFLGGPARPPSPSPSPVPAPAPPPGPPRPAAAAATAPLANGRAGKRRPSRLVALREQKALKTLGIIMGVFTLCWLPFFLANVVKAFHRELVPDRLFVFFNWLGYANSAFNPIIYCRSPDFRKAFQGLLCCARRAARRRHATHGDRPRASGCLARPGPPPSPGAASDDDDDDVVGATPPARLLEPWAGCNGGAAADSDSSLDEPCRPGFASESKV
Chain of Delta-type opioid receptor (P41143 whole entry): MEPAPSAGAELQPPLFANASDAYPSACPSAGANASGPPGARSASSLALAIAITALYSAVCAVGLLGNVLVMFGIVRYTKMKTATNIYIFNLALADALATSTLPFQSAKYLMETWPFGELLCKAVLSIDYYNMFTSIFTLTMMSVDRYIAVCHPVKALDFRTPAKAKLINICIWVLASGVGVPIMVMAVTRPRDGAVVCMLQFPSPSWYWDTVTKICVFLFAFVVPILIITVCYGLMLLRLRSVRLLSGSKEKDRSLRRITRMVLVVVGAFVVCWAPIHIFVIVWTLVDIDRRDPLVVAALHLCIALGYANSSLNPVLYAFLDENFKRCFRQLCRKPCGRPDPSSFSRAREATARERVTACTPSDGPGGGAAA
Chain of 3',5'-cyclic-AMP phosphodiesterase 4D (Q08499 whole entry): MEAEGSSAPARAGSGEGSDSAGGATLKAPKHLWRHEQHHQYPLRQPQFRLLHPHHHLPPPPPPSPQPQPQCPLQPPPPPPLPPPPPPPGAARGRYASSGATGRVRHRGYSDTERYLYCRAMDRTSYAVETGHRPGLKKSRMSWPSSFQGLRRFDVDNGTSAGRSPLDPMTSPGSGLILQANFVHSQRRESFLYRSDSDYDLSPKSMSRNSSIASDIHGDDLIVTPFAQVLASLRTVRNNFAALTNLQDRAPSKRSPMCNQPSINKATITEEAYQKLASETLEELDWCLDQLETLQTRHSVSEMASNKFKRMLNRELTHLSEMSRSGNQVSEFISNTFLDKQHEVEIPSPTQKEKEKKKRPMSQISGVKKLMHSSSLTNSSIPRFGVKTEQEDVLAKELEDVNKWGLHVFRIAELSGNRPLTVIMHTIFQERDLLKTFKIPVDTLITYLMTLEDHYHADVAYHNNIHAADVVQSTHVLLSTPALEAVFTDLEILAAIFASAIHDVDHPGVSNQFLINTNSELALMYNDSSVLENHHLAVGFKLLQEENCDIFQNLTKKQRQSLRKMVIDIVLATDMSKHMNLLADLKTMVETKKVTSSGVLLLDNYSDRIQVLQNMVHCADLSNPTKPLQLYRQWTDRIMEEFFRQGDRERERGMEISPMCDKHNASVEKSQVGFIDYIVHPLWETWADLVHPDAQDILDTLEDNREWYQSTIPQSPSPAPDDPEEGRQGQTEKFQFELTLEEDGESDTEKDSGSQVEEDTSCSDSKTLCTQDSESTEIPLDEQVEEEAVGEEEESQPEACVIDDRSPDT

Row | Compound | AC50 (Adenosine receptor A2a) [µM] | AC50 (Adenosine receptor A3) [µM] | AC50 [1] [µM] | AC50 [2] [µM] | AC50 [3] [µM] | AC50 [4] [µM] | AC50 [5] [µM] | AC50 [6] [µM] | AC50 [7] [µM] | AC50 [8] [µM] | AC50 [9] [µM]
1 | CC1(C)NC(=O)N(c2ccc([N+](=O)[O-])c(C(F)(F)F)c2)C1=O [NILUTAMIDE] | > 30 | > 30 | > 30 | > 30 | > 30 | > 30 | > 30 | > 30 | > 30 | 28 | > 30
2 | CCOC(=O)[C@H](CCc1ccccc1)N[C@@H](C)C(=O)N1[C@H](C(=O)O)C[C@@H]2CCC[C@@H]21 | > 30 | > 30 | > 10 | > 10 | > 30 | > 10 | > 10 | > 30 | > 30 | > 30 | > 30
3 | COCCCN1CCC(NC(=O)c2cc(Cl)c(N)c3c2OCC3)CC1 [PRUCALOPRIDE] | > 30 | > 30 | > 30 | > 30 | > 30 | > 30 | > 30 | > 30 | > 30 | > 30 | > 30
4 | COc1cc2nc(N(C)CCCNC(=O)C3CCCO3)nc(N)c2cc1OC (configuration not stated) [ALFUZOSIN] | > 30 | > 30 | > 30 | > 30 | > 30 | > 30 | > 30 | > 30 | > 30 | > 30 | > 30
5 | C[C@@H](O)[C@H]1C(=O)N2C(C(=O)O)=C(S[C@@H]3CN[C@H](C(=O)N(C)C)C3)[C@H](C)[C@H]12 [MEROPENEM] | > 300 | > 300 | > 300 | > 300 | > 300 | > 300 | > 300 | > 300 | > 300 | > 300 | > 300
6 | Nc1nc(NC2CC2)c2ncn([C@H]3C=C[C@@H](CO)C3)c2n1 [ABACAVIR] | > 30 | > 30 | > 30 | > 30 | > 30 | > 30 | > 30 | > 30 | > 30 | 10 | > 30
7 | CN1C(=O)CCS(=O)(=O)C1c1ccc(Cl)cc1 (configuration not stated) [CHLORMEZANONE] | > 10 | > 10 | > 10 | > 10 | > 10 | > 10 | > 10 | > 30 | > 30 | > 30 | > 10
8 | Cc1cn([C@H]2C[C@H](N=[N+]=[N-])[C@@H](CO)O2)c(=O)[nH]c1=O [ZIDOVUDINE] | > 30 | > 30 | > 10 | > 10 | > 30 | > 10 | > 10 | > 30 | > 30 | > 30 | > 30
9 | CN(C)CCC(c1ccc(Cl)cc1)c1ccccn1 (configuration not stated) [CHLORPHENIRAMINE] | > 30 | > 30 | > 10 | > 10 | > 30 | > 10 | > 10 | > 10 | > 10 | > 10 | > 30
10 | CCCSc1ccc2nc(NC(=O)OC)[nH]c2c1 [ALBENDAZOLE] | > 30 | > 30 | > 10 | > 10 | > 10 | > 10 | > 10 | > 30 | > 30 | > 30 | > 30
11 | N[C@@H]1[C@H]2CN(c3nc4c(cc3F)c(=O)c(C(=O)O)cn4-c3ccc(F)cc3F)C[C@@H]12 [TROVAFLOXACIN] | > 30 | > 30 | > 30 | > 30 | > 30 | > 30 | > 30 | > 30 | > 30 | > 30 | > 30
12 | NS(=O)(=O)Cc1noc2ccccc12 [ZONISAMIDE] | > 10 | > 10 | > 10 | > 10 | > 10 | > 10 | > 10 | > 30 | > 30 | > 30 | > 10
13 | Cc1c(C(=O)NN2CCCCC2)nn(-c2ccc(Cl)cc2Cl)c1-c1ccc(Cl)cc1 [RIMONABANT] | > 30 | 3.76 | > 30 | > 30 | 25 | > 30 | > 30 | > 30 | > 30 | > 30 | 20.1
14 | COc1ccccc1OCC(O)CN1CCN(CC(=O)Nc2c(C)cccc2C)CC1 (configuration not stated) [RANOLAZINE] | > 30 | > 30 | > 30 | 7.8 | > 30 | > 30 | > 30 | > 30 | > 30 | > 30 | > 30
15 | CN(C)CCC=C1c2ccccc2C(C)(C)c2ccccc21 | > 30 | > 30 | > 30 | 5.2 | 22 | 26 | > 30 | 5.8 | > 30 | > 30 | > 30
16 | O=C(OCC(O)CO)c1ccccc1Nc1ccnc2cc(Cl)ccc12 (configuration not stated) [GLAFENINE] | 23 | 7.2 | > 30 | > 30 | > 30 | > 30 | > 30 | > 30 | > 30 | 0.17 | 8.1
17 | Nc1ccn([C@H]2CC[C@@H](CO)O2)c(=O)n1 [ZALCITABINE] | > 10 | > 10 | > 10 | > 10 | > 10 | > 10 | > 10 | > 30 | > 30 | > 30 | > 10

From ChEMBL document CHEMBL5291721, “A preclinical secondary pharmacology resource illuminates target-adverse drug reaction associations of marketed drugs” (Nat Commun, 2023)
